Source: ChEMBL document CHEMBL1201862, “PubChem BioAssay data set” (2004)
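Test compounds were applied to cells in 96-well plates for 48 hours at 5 doses. GI50 is the concentration that inhibits growth by half.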 Activity calls are given as the source filed them. No stated cut-off is given here; in the data, active = GI50 up to about 1.1 µM and inactive = higher.

Key:
Assay in all cases: growth of human tumour cells (NCI), 48 h
[1] = test system: SK-OV-3
[2] = test system: MOLT-4
[3] = test system: HOP-92
[4] = test system: HL-60
[5] = test system: SK-MEL-2
[6] = test system: SW-620
[7] = test system: Malme-3M
[8] = test system: SK-MEL-28
[9] = test system: KM12
[10] = test system: NCI-H23
[11] = test system: SNB-19
[12] = test system: PC-3
[13] = test system: NCI-H460
[14] = test system: CAKI-1
[15] = test system: 786-0
[16] = test system: M14
[17] = test system: TK-10
[18] = test system: Hs-578T
[19] = test system: UACC-257
[20] = test system: HT-29
[21] = test system: SF-268
[22] = test system: NCI-H226
[23] = test system: COLO 205
[24] = test system: SNB-75
[25] = test system: A549
[26] = test system: RXF 393
[27] = test system: OVCAR-4
[28] = test system: HCT-15
[29] = test system: K562
[30] = test system: SF-295
[31] = test system: SN12C
[32] = test system: OVCAR-3
[33] = test system: UO-31
[34] = test system: U-251
[35] = test system: SK-MEL-5
[36] = test system: LOX IMVI
[37] = test system: DU-145
[38] = test system: ACHN
[39] = test system: T47D
[40] = test system: NCI-H522
[41] = test system: BT-549
[42] = test system: OVCAR-5
[43] = test system: HCC 2998
[44] = test system: CCRF-CEM
[45] = test system: NCI/ADR-RES
[46] = test system: HCT-116
[47] = test system: UACC-62
[48] = test system: IGROV-1
[49] = test system: MCF7
[50] = test system: HOP-62
[51] = test system: MDA-MB-435
[52] = test system: A498
[53] = test system: EKVX
[54] = test system: OVCAR-8
[55] = test system: MDA-N
[56] = test system: SF-539
[57] = test system: MDA-MB-231

## COC(=O)c1ccccc1C1CN=NC12Cc1cc(C)c(C)cc1C2=O (centres undefined)
[1]
  GI50: 40.3 µM (inactive)
[2]
  GI50: 34.3 µM (inactive)
[3]
  GI50: 28 µM (inactive)
[4]
  GI50: 21.8 µM (inactive)
[5]
  GI50: 49.7 µM (inactive)
[6]
  GI50: 51.6 µM (inactive)
[7]
  GI50: 52.4 µM (inactive)
[8]
  GI50: 87.7 µM (inactive)
[9]
  GI50: 29.7 µM (inactive)
[10]
  GI50: 29.1 µM (inactive)
[11]
  GI50: 54.8 µM (inactive)
[12]
  GI50: 32.1 µM (inactive)
[13]
  GI50: 44.1 µM (inactive)
[14]
  GI50: 61.2 µM (inactive)
[15]
  GI50: 63.1 µM (inactive)
[16]
  GI50: 40.7 µM (inactive)
[17]
  GI50: 25.8 µM (inactive)
[18]
  GI50: 45.5 µM (inactive)
[19]
  GI50: 14.5 µM (inactive)
[20]
  GI50: 29.4 µM (inactive)
[21]
  GI50: 28.9 µM (inactive)
[22]
  GI50: > 100 µM (inactive)
[23]
  GI50: 49.9 µM (inactive)
[24]
  GI50: 29.9 µM (inactive)
[25]
  GI50: 37.8 µM (inactive)
[26]
  GI50: 66.2 µM (inactive)
[27]
  GI50: 29.6 µM (inactive)
[28]
  GI50: 32.7 µM
[29]
  GI50: 20 µM (inactive)
[30]
  GI50: 37.5 µM (inactive)
[31]
  GI50: 48.9 µM (inactive)
[32]
  GI50: 27.5 µM (inactive)
[33]
  GI50: 30.3 µM (inactive)
[34]
  GI50: 41.6 µM (inactive)
[35]
  GI50: 18.7 µM (inactive)
[36]
  GI50: 20.4 µM (inactive)
[37]
  GI50: > 100 µM (inactive)
[38]
  GI50: 40.2 µM (inactive)
[39]
  GI50: 31.8 µM (inactive)
[40]
  GI50: 14.3 µM (inactive)
[41]
  GI50: 65.9 µM (inactive)
[42]
  GI50: > 100 µM (inactive)
[43]
  GI50: 55.2 µM (inactive)
[44]
  GI50: 24.1 µM (inactive)
[45]
  GI50: 23.6 µM (inactive)
[46]
  GI50: 33.4 µM (inactive)
[47]
  GI50: 53 µM (inactive)
[48]
  GI50: 55.2 µM (inactive)
[49]
  GI50: 24.4 µM (inactive)
[50]
  GI50: 78 µM (inactive)
[51]
  GI50: 33.4 µM (inactive)
[52]
  GI50: 25.8 µM (inactive)
[53]
  GI50: 42.1 µM (inactive)
[54]
  GI50: 54.6 µM (inactive)
[55]
  GI50: 33.7 µM (inactive)
[56]
  GI50: 84.3 µM (inactive)
[57]
  GI50: 27.2 µM (inactive)

## CC(=O)N1c2ccccc2Sc2cc(C(O)(C(F)(F)F)C(F)(F)F)ccc21
[1]
  GI50: > 10 µM (inactive)
[2]
  GI50: > 10 µM (inactive)
[3]
  GI50: 4.66 µM (inactive)
[4]
  GI50: > 10 µM (inactive)
[5]
  GI50: > 10 µM (inactive)
[6]
  GI50: > 10 µM (inactive)
[7]
  GI50: > 10 µM (inactive)
[8]
  GI50: > 10 µM (inactive)
[9]
  GI50: > 10 µM (inactive)
[10]
  GI50: > 10 µM (inactive)
[11]
  GI50: > 10 µM (inactive)
[12]
  GI50: > 10 µM (inactive)
[13]
  GI50: > 10 µM (inactive)
[14]
  GI50: > 10 µM (inactive)
[15]
  GI50: > 10 µM (inactive)
[16]
  GI50: > 10 µM (inactive)
[17]
  GI50: > 10 µM (inactive)
[18]
  GI50: > 10 µM (inactive)
[19]
  GI50: > 10 µM (inactive)
[20]
  GI50: > 10 µM (inactive)
[21]
  GI50: > 10 µM (inactive)
[22]
  GI50: > 10 µM (inactive)
[23]
  GI50: > 10 µM (inactive)
[24]
  GI50: 9.59 µM (inactive)
[25]
  GI50: > 10 µM (inactive)
[26]
  GI50: > 10 µM (inactive)
[27]
  GI50: > 10 µM (inactive)
[28]
  GI50: > 10 µM
[29]
  GI50: > 10 µM (inactive)
[30]
  GI50: > 10 µM (inactive)
[31]
  GI50: > 10 µM (inactive)
[32]
  GI50: > 10 µM (inactive)
[33]
  GI50: > 10 µM (inactive)
[34]
  GI50: > 10 µM (inactive)
[35]
  GI50: 7.26 µM (inactive)
[36]
  GI50: > 10 µM (inactive)
[37]
  GI50: > 10 µM (inactive)
[38]
  GI50: > 10 µM (inactive)
[39]
  GI50: 9.86 µM (inactive)
[40]
  GI50: > 10 µM (inactive)
[41]
  GI50: > 10 µM (inactive)
[42]
  GI50: > 10 µM (inactive)
[43]
  GI50: > 10 µM (inactive)
[44]
  GI50: > 10 µM (inactive)
[45]
  GI50: > 10 µM (inactive)
[46]
  GI50: > 10 µM (inactive)
[47]
  GI50: > 10 µM (inactive)
[48]
  GI50: > 10 µM (inactive)
[49]
  GI50: > 10 µM (inactive)
[50]
  GI50: > 10 µM (inactive)
[51]
  GI50: > 10 µM (inactive)
[52]
  GI50: > 10 µM (inactive)
[53]
  GI50: > 10 µM (inactive)
[54]
  GI50: > 10 µM (inactive)
[55]
  GI50: > 10 µM (inactive)
[56]
  GI50: > 10 µM (inactive)
[57]
  GI50: > 10 µM (inactive)
